Test results published in ChEMBL document CHEMBL2157869, “N'-substituted-2'-O,3'-N-carbonimidoyl bridged macrolides: novel anti-inflammatory macrolides without antimicrobial activity” (J Med Chem, 2012).
Activity calls are given as the source filed them. The rule behind the calls is not given here.

Tests used:
Mus musculus [1] = assay: Antiinflammatory activity in BALB/cJ mouse assessed as inhibition of LPS-induced CXCL1 production in lung homogenates at 200 mg/kg, ip administered 2 hrs prior to LPS challenge; format: functional, organism-based; design: dose 200 mg/kg
[2] = Clearance in Sprague-Dawley rat at 2 mg/kg, iv and 10 mg/kg, po; format: ADME, organism-based; settings: in vivo
[3] = Oral bioavailability in BALB/cJ mouse at 25 mg/kg; format: ADME, organism-based; settings: in vivo
Mus musculus [4] = assay: Antiinflammatory activity in BALB/cJ mouse assessed as inhibition of LPS-induced IL-6 production in lung homogenates at 200 mg/kg, ip administered 2 hrs prior to LPS challenge; format: functional, organism-based; design: dose 200 mg/kg
[5] = Antiinflammatory activity in mouse splenocytes assessed as inhibition of LPS-induced IL-6 production at 50 uM preincubated for 2 hrs prior to LPS challenge by sandwich ELISA; format: functional; settings: Splenocyte
[6] = Clearance in BALB/cJ mouse at 5 mg/kg, iv and 25 mg/kg, po; format: ADME, organism-based; settings: in vivo
Mus musculus [7] = assay: Antiinflammatory activity in BALB/cJ mouse assessed as inhibition of LPS-induced IL-1beta production in lung homogenates at 200 mg/kg, ip administered 2 hrs prior to LPS challenge; format: functional, organism-based; design: dose 200 mg/kg
[8] = Half life in Sprague-Dawley rat at 2 mg/kg, iv and 10 mg/kg, po; format: ADME, organism-based; settings: in vivo
Mus musculus [9] = assay: Antiinflammatory activity in BALB/cJ mouse assessed as inhibition of LPS-induced CCL2 production in lung homogenates at 200 mg/kg, ip administered 2 hrs prior to LPS challenge; format: functional, organism-based; design: dose 200 mg/kg
Streptococcus pyogenes = assay: Antibacterial activity against Streptococcus pyogenes ATCC 700294 by CLSI broth microdilution method; format: functional
Cytochrome P450 3A4 [10] = biological target: T1, Cytochrome P450 3A4 (Homo sapiens, UniProt P08684)
Description: Inhibition of human recombinant CYP3A4 using 7-BQ as substrate preincubated for 5 to 10 mins before substrate addition

[11] = Oral bioavailability in Sprague-Dawley rat at 10 mg/kg; format: ADME, organism-based; settings: in vivo
Mus musculus [12] = assay: Antiinflammatory activity in ip dosed BALB/cJ mouse assessed as decrease in LPS-induced neutrophil number in bronchoalveolar lavage fluid administered 2 hrs prior to LPS challenge measured after 24 hrs post LPS challenge; format: functional, organism-based; settings: Lung
[13] = Half life in BALB/cJ mouse at 5 mg/kg, iv and 25 mg/kg, po; format: ADME, organism-based; settings: in vivo
[14] = Antiinflammatory activity in mouse splenocytes assessed as inhibition of LPS-induced IL-6 production in mouse splenocytes at 25 uM preincubated for 2 hrs prior to LPS challenge by sandwich ELISA; format: functional; settings: Splenocyte
Mus musculus [15] = assay: Antiinflammatory activity in ip dosed BALB/cJ mouse assessed as decrease in LPS-induced total cell number in bronchoalveolar lavage fluid administered 2 hrs prior to LPS challenge measured after 24 hrs post LPS challenge; format: functional, organism-based; settings: Lung
[16] = Volume of distribution at steady state in BALB/cJ mouse at 5 mg/kg, iv and 25 mg/kg, po; format: ADME, organism-based; settings: in vivo, read-out: Vdss
Cytochrome P450 3A4 [17] = biological target: T1, Cytochrome P450 3A4; remark: listed apart in the source
Description: Inhibition of human recombinant CYP3A4 using DEF as substrate preincubated for 5 to 10 mins before substrate addition

[18] = Cytotoxicity against human THP1 cells assessed as cell viability at 50 uM after 24 hrs by MTT assay; format: cell-based, THP-1; settings: read-out: Activity
[19] = Volume of distribution at steady state in Sprague-Dawley rat at 2 mg/kg, iv and 10 mg/kg, po; format: ADME, organism-based; settings: in vivo, read-out: Vdss
Mus musculus [20] = assay: Antiinflammatory activity in BALB/cJ mouse assessed as inhibition of LPS-induced GM-CSF production in lung homogenates at 200 mg/kg, ip administered 2 hrs prior to LPS challenge; format: functional, organism-based; design: dose 200 mg/kg
Mus musculus [21] = assay: Antiinflammatory activity in BALB/cJ mouse assessed as inhibition of LPS-induced TNFalpha level in lung homogenates at 200 mg/kg, ip administered 2 hrs prior to LPS challenge; format: functional, organism-based; design: dose 200 mg/kg
[22] = Antiinflammatory activity in mouse splenocytes assessed as inhibition of LPS-induced IL-6 production at 12 uM preincubated for 2 hrs prior to LPS challenge by sandwich ELISA; format: functional; settings: Splenocyte
Mus musculus [23] = assay: Antiinflammatory activity in BALB/cJ mouse assessed as inhibition of LPS-induced CXCL2 production in lung homogenates at 200 mg/kg, ip administered 2 hrs prior to LPS challenge; format: functional, organism-based; design: dose 200 mg/kg

T1 sequence (P08684 whole entry): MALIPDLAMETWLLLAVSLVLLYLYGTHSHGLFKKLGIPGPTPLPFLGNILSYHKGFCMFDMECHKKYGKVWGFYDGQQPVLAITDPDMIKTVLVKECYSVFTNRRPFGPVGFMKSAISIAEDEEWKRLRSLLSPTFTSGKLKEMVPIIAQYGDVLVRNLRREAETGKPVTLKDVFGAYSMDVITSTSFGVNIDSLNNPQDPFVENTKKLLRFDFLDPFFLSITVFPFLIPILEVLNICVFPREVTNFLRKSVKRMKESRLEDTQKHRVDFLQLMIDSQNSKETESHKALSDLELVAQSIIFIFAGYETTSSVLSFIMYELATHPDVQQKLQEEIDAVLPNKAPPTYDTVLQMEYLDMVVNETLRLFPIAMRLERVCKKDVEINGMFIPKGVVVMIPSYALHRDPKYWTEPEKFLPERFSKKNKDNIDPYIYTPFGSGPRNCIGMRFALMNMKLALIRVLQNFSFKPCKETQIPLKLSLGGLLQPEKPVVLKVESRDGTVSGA

CC[C@H]1OC(=O)[C@H](C)[C@@H](O[C@H]2C[C@@](C)(OC)[C@@H](O)[C@H](C)O2)[C@H](C)[C@@H](O[C@@H]2O[C@H](C)C[C@H]3[C@H]2O/C(=N\C(C)C)N3C)[C@](C)(O)C[C@@H](C)CN(C)[C@H](C)[C@@H](O)[C@]1(C)O
inhibition (Mus musculus [1]): Active | clearance [2]: 12.3 mL/min/kg | bioavailability [3]: 62% | inhibition (Mus musculus [4]): Active | inhibition at 50 µM [5]: 95% | clearance [6]: 19.8 mL/min/kg | inhibition (Mus musculus [7]): Active | half-life [8]: 20.3 h | inhibition (Mus musculus [9]): Active | MIC (Streptococcus pyogenes): > 64 µg/mL | IC50 (Cytochrome P450 3A4 [10]): > 10 µM | bioavailability [11]: 33% | Activity (Mus musculus [12]): Dose-dependent effect | half-life [13]: 17.3 h | inhibition at 25 µM [14]: 90% | Activity (Mus musculus [15]): Dose-dependent effect | Vd [16]: 23 L/kg | IC50 (Cytochrome P450 3A4 [17]): 7.8 µM | viability at 24 h, 50 µM [18]: 9% | Vd [19]: 8.6 L/kg | inhibition (Mus musculus [20]): Active | inhibition (Mus musculus [21]): Active | inhibition at 12 µM [22]: 79% | inhibition (Mus musculus [23]): Active
